Assay results published in US6809065B2, “Herbicide containing substituted pyrazole derivative as active ingredient” (SDS Biotech K.K., priority 2001, dated 2004).

Tests used:
Echinochloa spp. = assay: Paddy field treatment (Test Example 3); type: in vivo, Echinochloa crusgalli; details: paddy pot, submerged 4 cm, dropped on water surface 10th day after transplantation, 1 kg active ingredient per hectare, evaluated 21st day
In short: (§1)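 Weeds sown in puddled paddy soil under 4 cm water, with two-leaf Koshihikari rice transplanted at 3 cm depth. On day 10 after transplanting, wettable powder applied to the water surface at 1 kg active ingredient per hectare. Herbicidal effect and crop safety scored on an index 21 days later.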

soybean (Glycine max) [1] = assay: Upland field foliage treatment (Test Example 1), crop; type: in vivo; details: foliage treatment 14th day after sowing, 1 kg active ingredient per hectare, evaluated 21st day, lower index = higher safety
In short: (§2)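 Weeds and crops were sown in upland soil under about 1 cm cover, and a wettable powder diluted in water was sprayed on the foliage 14 days after sowing at 1 kg active ingredient per hectare. Scoring was done 21 days after application on an index scale, where higher weed scores mean stronger herbicidal effect and lower crop scores mean greater crop safety.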

[2] = test system: wheat (Triticum aestivum); assay: as above; type: in vivo; details: foliage treatment 14th day after sowing, 1 kg active ingredient per hectare, evaluated 21st day, lower index = higher safety
In short: as §2

soybean (Glycine max) [3] = assay: Upland soil treatment (Test Example 2), crop; type: in vivo; details: soil surface treatment next day after sowing, 1 kg active ingredient per hectare, evaluated 21st day, lower index = higher safety
In short: (§3)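 Applies a soil-surface, pre-emergence spray of 1 kg active ingredient/ha (wettable powder in water) one day after sowing; weed control and crop injury are rated on an index scale three weeks later.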

[4] = test system: wheat (Triticum aestivum); assay: Upland soil treatment (Test Example 2), crop; type: in vivo; details: soil surface treatment next day after sowing, 1 kg active ingredient per hectare, evaluated 21st day, lower index = higher safety
In short: as §3

Stellaria media [5] = assay: Upland soil treatment (Test Example 2); type: in vivo; details: soil surface treatment next day after sowing, wettable powder, 1 kg active ingredient per hectare, evaluated 21st day after application
In short: as §3

Chenopodium album [6] = assay: Upland soil treatment (Test Example 2); type: in vivo; details: soil surface treatment next day after sowing, wettable powder, 1 kg active ingredient per hectare, evaluated 21st day after application
In short: as §3

Setaria viridis [7] = assay: Upland soil treatment (Test Example 2); type: in vivo; details: soil surface treatment next day after sowing, wettable powder, 1 kg active ingredient per hectare, evaluated 21st day after application
In short: as §3

Digitaria adscendens [8] = assay: Upland soil treatment (Test Example 2); type: in vivo; details: soil surface treatment next day after sowing, wettable powder, 1 kg active ingredient per hectare, evaluated 21st day after application
In short: as §3

Stellaria media [9] = assay: Upland field foliage treatment (Test Example 1); type: in vivo; details: foliage treatment 14th day after sowing, wettable powder, 1 kg active ingredient per hectare, evaluated 21st day after application
In short: as §2

Chenopodium album [10] = assay: Upland field foliage treatment (Test Example 1); type: in vivo; details: foliage treatment 14th day after sowing, wettable powder, 1 kg active ingredient per hectare, evaluated 21st day after application
In short: as §2

Setaria viridis [11] = assay: Upland field foliage treatment (Test Example 1); type: in vivo; details: foliage treatment 14th day after sowing, wettable powder, 1 kg active ingredient per hectare, evaluated 21st day after application
In short: as §2

Digitaria adscendens [12] = assay: Upland field foliage treatment (Test Example 1); type: in vivo; details: foliage treatment 14th day after sowing, wettable powder, 1 kg active ingredient per hectare, evaluated 21st day after application
In short: as §2

[13] = test system: rice (Oryza sative, variety: Koshihikari); assay: Paddy field treatment (Test Example 3), crop; type: in vivo, Oryza sativa; details: transplanted rice two-leaf period, water surface treatment 10th day after transplantation, 1 kg active ingredient per hectare, evaluated 21st day, lower index = higher safety
In short: as §1

Scirpus juncoides = assay: Paddy field treatment (Test Example 3); type: in vivo; details: paddy pot, submerged 4 cm, dropped on water surface 10th day after transplantation, 1 kg active ingredient per hectare, evaluated 21st day
In short: as §1

Ammannia multiflora = assay: Paddy field treatment (Test Example 3); type: in vivo; details: paddy pot, submerged 4 cm, dropped on water surface 10th day after transplantation, 1 kg active ingredient per hectare, evaluated 21st day
In short: as §1

Monochoria vaginalis = assay: Paddy field treatment (Test Example 3); type: in vivo; details: paddy pot, submerged 4 cm, dropped on water surface 10th day after transplantation, 1 kg active ingredient per hectare, evaluated 21st day
In short: as §1

Row | SMILES | Herbicidal activity Echinochloa spp. (Echinochloa spp.) | Herbicidal activity Glycine max (soybean (Glycine max) [1]) | Herbicidal activity Triticum aestivum [2] | Herbicidal activity Glycine max (soybean (Glycine max) [3]) | Herbicidal activity Triticum aestivum [4] | Herbicidal activity Stellaria media (Stellaria media [5]) | Herbicidal activity Chenopodium album (Chenopodium album [6]) | Herbicidal activity Setaria viridis (Setaria viridis [7]) | Herbicidal activity Digitaria adscendens (Digitaria adscendens [8]) | Herbicidal activity Stellaria media (Stellaria media [9]) | Herbicidal activity Chenopodium album (Chenopodium album [10]) | Herbicidal activity Setaria viridis (Setaria viridis [11]) | Herbicidal activity Digitaria adscendens (Digitaria adscendens [12]) | Herbicidal activity Oryza sativa [13] | Herbicidal activity Scirpus juncoides (Scirpus juncoides) | Herbicidal activity Ammannia multiflora (Ammannia multiflora) | Herbicidal activity Monochoria vaginalis (Monochoria vaginalis)
1 | COC=C(CCn1cc(C)c(-c2ccccc2)n1)C(=O)OC [Compound 47] | 3 (herbicidal effect of not less than 50% by weight and less than 70% by weight) | 0 (herbicidal effect of not less than 0% by weight and less than 10% by weight) | 0 (herbicidal effect of not less than 0% by weight and less than 10% by weight) | 0 (herbicidal effect of not less than 0% by weight and less than 10% by weight) | 0 (herbicidal effect of not less than 0% by weight and less than 10% by weight) | 3 (herbicidal effect of not less than 50% by weight and less than 70% by weight) | 4 (herbicidal effect of not less than 70% by weight and less than 90% by weight) | 4 (herbicidal effect of not less than 70% by weight and less than 90% by weight) | 4 (herbicidal effect of not less than 70% by weight and less than 90% by weight) | 4 (herbicidal effect of not less than 70% by weight and less than 90% by weight) | 4 (herbicidal effect of not less than 70% by weight and less than 90% by weight) | 3 (herbicidal effect of not less than 50% by weight and less than 70% by weight) | 3 (herbicidal effect of not less than 50% by weight and less than 70% by weight) | 0 (herbicidal effect of not less than 0% by weight and less than 10% by weight) | 3 (herbicidal effect of not less than 50% by weight and less than 70% by weight) | 2 (herbicidal effect of not less than 30% by weight and less than 50% by weight) | 2 (herbicidal effect of not less than 30% by weight and less than 50% by weight)
2 | COC=C(Cn1nc(-c2ccccc2)c(Cl)c1C)C(=O)OC [Compound 12] | 4 (herbicidal effect of not less than 70% by weight and less than 90% by weight) | 1 (herbicidal effect of not less than 10% by weight and less than 30% by weight) | 0 (herbicidal effect of not less than 0% by weight and less than 10% by weight) | 0 (herbicidal effect of not less than 0% by weight and less than 10% by weight) | 0 (herbicidal effect of not less than 0% by weight and less than 10% by weight) | 4 (herbicidal effect of not less than 70% by weight and less than 90% by weight) | 5 (herbicidal effect of not less than 90% by weight) | 4 (herbicidal effect of not less than 70% by weight and less than 90% by weight) | 5 (herbicidal effect of not less than 90% by weight) | 5 (herbicidal effect of not less than 90% by weight) | 5 (herbicidal effect of not less than 90% by weight) | 4 (herbicidal effect of not less than 70% by weight and less than 90% by weight) | 5 (herbicidal effect of not less than 90% by weight) | 0 (herbicidal effect of not less than 0% by weight and less than 10% by weight) | 4 (herbicidal effect of not less than 70% by weight and less than 90% by weight) | 5 (herbicidal effect of not less than 90% by weight) | 5 (herbicidal effect of not less than 90% by weight)
3 | CO/C=C(/C(=O)OC)n1nc(-c2cccc(Cl)c2)c(Cl)c1C [Control, reference compound] | 0 (herbicidal effect of not less than 0% by weight and less than 10% by weight) | 0 (herbicidal effect of not less than 0% by weight and less than 10% by weight) | 0 (herbicidal effect of not less than 0% by weight and less than 10% by weight) | 0 (herbicidal effect of not less than 0% by weight and less than 10% by weight) | 0 (herbicidal effect of not less than 0% by weight and less than 10% by weight) | 0 (herbicidal effect of not less than 0% by weight and less than 10% by weight) | 0 (herbicidal effect of not less than 0% by weight and less than 10% by weight) | 0 (herbicidal effect of not less than 0% by weight and less than 10% by weight) | 0 (herbicidal effect of not less than 0% by weight and less than 10% by weight) | 0 (herbicidal effect of not less than 0% by weight and less than 10% by weight) | 0 (herbicidal effect of not less than 0% by weight and less than 10% by weight) | 0 (herbicidal effect of not less than 0% by weight and less than 10% by weight) | 0 (herbicidal effect of not less than 0% by weight and less than 10% by weight) | 0 (herbicidal effect of not less than 0% by weight and less than 10% by weight) | 0 (herbicidal effect of not less than 0% by weight and less than 10% by weight) | 0 (herbicidal effect of not less than 0% by weight and less than 10% by weight) | 0 (herbicidal effect of not less than 0% by weight and less than 10% by weight)
4 | COC=C(Cn1cc(C)c(-c2ccccc2)n1)C(=O)OC [Compound 13] | 5 (herbicidal effect of not less than 90% by weight) | 0 (herbicidal effect of not less than 0% by weight and less than 10% by weight) | 0 (herbicidal effect of not less than 0% by weight and less than 10% by weight) | 0 (herbicidal effect of not less than 0% by weight and less than 10% by weight) | 0 (herbicidal effect of not less than 0% by weight and less than 10% by weight) | 5 (herbicidal effect of not less than 90% by weight) | 5 (herbicidal effect of not less than 90% by weight) | 5 (herbicidal effect of not less than 90% by weight) | 5 (herbicidal effect of not less than 90% by weight) | 5 (herbicidal effect of not less than 90% by weight) | 5 (herbicidal effect of not less than 90% by weight) | 5 (herbicidal effect of not less than 90% by weight) | 5 (herbicidal effect of not less than 90% by weight) | 0 (herbicidal effect of not less than 0% by weight and less than 10% by weight) | 5 (herbicidal effect of not less than 90% by weight) | 5 (herbicidal effect of not less than 90% by weight) | 5 (herbicidal effect of not less than 90% by weight)
